Measured values taken from US6927214B1 (Novo Nordisk A/S, priority 1999, dated 2005).
Where two headings read alike, the source gives them in different places.

Assays:
human glucagon receptor = target: T1, human glucagon receptor (Homo sapiens, UniProt P47871); experiment: Stimulation of cAMP formation in a cell line expressing the cloned human glucagon receptor; format: biochemical; settings: concentrations tested up to 100 μM
T1 construct: expressed in transfected cells

human GLP-1 receptor [1] = target: T2, human GLP-1 receptor (Homo sapiens, UniProt P43220); set-up: Emax: dose or concentration left out as unconfirmed
T2 sequence (P43220 24-463): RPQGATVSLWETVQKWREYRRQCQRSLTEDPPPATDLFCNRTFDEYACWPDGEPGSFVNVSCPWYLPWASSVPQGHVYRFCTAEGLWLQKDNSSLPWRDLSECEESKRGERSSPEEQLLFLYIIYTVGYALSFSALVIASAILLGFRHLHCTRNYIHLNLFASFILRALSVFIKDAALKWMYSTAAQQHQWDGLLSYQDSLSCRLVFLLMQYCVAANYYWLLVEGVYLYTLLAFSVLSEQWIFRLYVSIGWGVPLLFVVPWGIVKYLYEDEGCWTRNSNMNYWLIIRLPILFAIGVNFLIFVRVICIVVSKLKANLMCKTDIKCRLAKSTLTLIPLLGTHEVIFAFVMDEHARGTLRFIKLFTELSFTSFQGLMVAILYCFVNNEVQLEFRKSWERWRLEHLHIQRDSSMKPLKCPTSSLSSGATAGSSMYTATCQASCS

human GLP-1 receptor [2] = target: T2, human GLP-1 receptor; experiment: Saturation experiments with labelled GLP-1 tracer on plasma membranes, with or without example 2; format: binding; set-up: expressed in transfected cells; host or cells: BHK (baby hamster kidney) cells; plasma membranes prepared from them; settings: 10 μM compound, saturation experiment
human GLP-1 receptor [3] = target: T2, human GLP-1 receptor; experiment: biochemical

T1 sequence (P47871 26-477): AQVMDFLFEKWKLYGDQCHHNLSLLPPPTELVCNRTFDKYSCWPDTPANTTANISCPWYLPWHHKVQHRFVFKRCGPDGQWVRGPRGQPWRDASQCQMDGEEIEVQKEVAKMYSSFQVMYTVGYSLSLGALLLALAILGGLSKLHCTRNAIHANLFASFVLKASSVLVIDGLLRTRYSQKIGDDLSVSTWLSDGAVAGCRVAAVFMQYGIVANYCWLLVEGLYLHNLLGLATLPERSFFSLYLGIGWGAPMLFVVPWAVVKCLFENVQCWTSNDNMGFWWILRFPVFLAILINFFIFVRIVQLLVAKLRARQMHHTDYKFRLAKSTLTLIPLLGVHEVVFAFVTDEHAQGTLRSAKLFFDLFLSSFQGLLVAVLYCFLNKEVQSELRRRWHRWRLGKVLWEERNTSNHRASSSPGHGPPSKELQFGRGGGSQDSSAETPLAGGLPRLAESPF

| EC50 (human GLP-1 receptor [1]) | Emax (human GLP-1 receptor [1]) | EC50 (human GLP-1 receptor [3]) | Emax (human GLP-1 receptor [3]) | Compound | further results |
| --- | --- | --- | --- | --- | --- |
| 78 nM | 120% |  |  | Cc1nnc(S(=O)(=O)c2nc3cc(Cl)c(Cl)cc3nc2C(C)C)s1 [Example 7, 6,7-Dichloro-2-isopropyl-3-(5-methyl-1,3,4-thiadiazol-2-ylsulfonyl)quinoxaline] |  |
| 160 nM | 120% |  |  | CS(=O)(=O)c1nc2cc(Cl)c(Cl)cc2nc1C(F)(F)F [Example 19, 6,7-Dichloro-2-methanesulfonyl-3-trifluoromethylquinoxaline] |  |
| 68 nM | 140% |  |  | CC(C)S(=O)(=O)c1nc2cc(Cl)c(Cl)cc2nc1C(F)(F)F [Example 20, 6,7-Dichloro-2-trifluoromethyl-3-isopropylsulfonylquinoxaline] |  |
| 78 nM | 130% |  |  | Cc1nc2cc(Cl)c(Cl)cc2nc1S(C)(=O)=O [Example 56, 6,7-Dichloro-3-methyl-2-(methylsulfonyl)quinoxaline] |  |
|  |  | 650 nM | 53% | CC(C)c1nc2cc(Cl)c(Cl)cc2nc1S(=O)(=O)c1cncn1C [Example 65, 6,7-Dichloro-2-isopropyl-3-(1-methyl-1H-imidazol-5-ylsulfonyl)quinoxaline] |  |
|  |  | 770 nM | 53% | CCCc1nc2cc(Cl)c(Cl)cc2nc1S(C)(=O)=O [Example 92, 6,7-Dichloro-2-(methylsulfonyl)-3-propylquinoxaline] |  |
|  |  | 50 nM | 80% | CC(C)(C)Nc1nc2cc(Cl)c(Cl)cc2nc1S(C)(=O)=O [Example 103, N-[6,7-Dichloro-3-(methylsulfonyl)-2-quinoxalinyl]N-tert-butylamine] |  |
|  |  | 290 nM | 76% | CCC(C)(C)Nc1nc2cc(Cl)c(Cl)cc2nc1S(C)(=O)=O [Example 135, (6,7-Dichloro-3-(methylsulfonyl)═quinoxalin-2-yl)tert-pentylamine] |  |
|  |  | 660 nM | 46% | CC(C)Sc1nc2cc(Cl)c(Cl)cc2nc1S(C)(=O)=O [Example 137, 6,7-Dichloro-2-(isopropylsulfanyl)-3-(methylsulfonyl)quinoxaline] |  |

Further lines, the compound ahead of its results:

| Compound | EC50 (human GLP-1 receptor [1]) | Emax (human GLP-1 receptor [1]) | EC50 (human GLP-1 receptor [3]) | Emax (human GLP-1 receptor [3]) | further results |
| --- | --- | --- | --- | --- | --- |
| Cc1nnc(Sc2nc3cc(Cl)c(Cl)cc3nc2C(F)(F)F)s1 [Example 2, 6,7-Dichloro-2-trifluoromethyl-3-(5-methyl-1,3,4-thiadiazol-2-ylsulfanyl)quinoxaline] | 310 nM | 100% |  |  | agonist activity (cAMP formation) (human glucagon receptor): no measurable activity; effect on the affinity of the receptor for GLP-1 (human GLP-1 receptor [2]): changed the affinity of the receptor for GLP-1 |
| Cc1nnc([S+]([O-])c2nc3cc(Cl)c(Cl)cc3nc2C(C)C)s1 (stereo not shown) [Example 6, 6,7-Dichloro-2-isopropyl-3-(5-methyl-1,3,4-thiadiazol-2-ylsulfinyl)quinoxaline] | 170 nM | 94% |  |  |  |
| O=Cc1cc2cc(Cl)ccc2nc1Cl [Example 25, 2,6-Dichloroquinoline-3-carbaldehyde] |  | 15% |  |  |  |
| CSc1nc2ccc(Cl)cc2cc1C=O [Example 29, 6-Chloro-2-methylsulfanylquinoline-3-carbaldehyde] |  | 13% |  |  |  |
| Cc1nc2cc(Cl)ccc2nc1Cl [Example 46, 2,6-Dichloro-3-methylquinoxaline] | > 33000 nM | 0% |  |  |  |
| COc1nc2ccc(Cl)cc2nc1Cl [Example 47, 2,7-Dichloro-3-methoxyquinoxaline] | 10000 nM | 50% |  |  |  |
| CS(=O)(=O)c1nc2cc(Cl)c(Cl)cc2nc1NC1CCCc2ccccc21 (stereo not shown) [Example 108, N-[6,7-Dichloro-3-(methylsulfonyl)-2-quinoxalinyl]-N-(1,2,3,4-tetrahydro-naphthalene-1-yl)amine] |  |  | 680 nM | 54% |  |
| CC(C)Nc1nc2cc(Cl)c(Cl)cc2nc1S(=O)(=O)Cc1ccc(OC(F)F)cc1 [Example 136, (6,7-Dichloro-3-{[4-(difluoromethoxy)benzyl]sulfonyl}quinoxalin-2-yl)isopropylamine] |  |  | 820 nM | 64% |  |
| Cn1ccnc1S(=O)(=O)c1nc2cc(Cl)c(Cl)cc2nc1NC(C)(C)C [Example 138, (6,7-Dichloro-3-[(1-methyl-1H-imidazol-2-yl)sulfonyl]quinoxalin-2-yl)-tert-butylamine] |  |  | 540 nM | 72% |  |
| O=[N+]([O-])c1cc2nc(-c3ccccc3)c(C(F)(F)F)nc2cc1[N+](=O)[O-] [Example 145, 6,7-Dinitro-2-phenyl-3-trifluoromethylquinoxaline] |  |  |  |  | Emax at 0.33 µM (human GLP-1 receptor [3]): 36% |
| O=[N+]([O-])c1cc2ncc(-c3ccc(C(F)(F)F)cc3)nc2cc1[N+](=O)[O-] [Example 147, 6,7-Dinitro-2-(4-trifluoromethylphenyl)quinoxaline] |  |  |  |  | Emax at 1 µM (human GLP-1 receptor [3]): 31% |
| FC(F)(F)c1nc2cc(Cl)c(Cl)cc2nc1Sc1nccs1 [Example 156, 6,7-Dichloro-2-(thiazol-2-ylsulfanyl)-3-trifluoromethyl-quinoxaline] |  |  |  |  | Emax at 0.01 µM (human GLP-1 receptor [3]): 42% |
| O=C(c1ccccc1)c1ccc2nc(Br)c(C(F)(F)F)nc2c1 [Example 157, (2-Bromo-3-trifluoromethyl-quinoxalin-6-yl)phenyl Methanone] |  |  |  |  | Emax at 3.3 µM (human GLP-1 receptor [3]): 15% |
| Cc1nnc(Sc2nc3ccc(C(=O)c4ccccc4)cc3nc2C(F)(F)F)s1 [Example 158, [2-(5-Methyl-[1,3,4]thiadiazol-2-ylsulfanyl)-3-trifluorophenylquinoxalin-6-yl]phenyl Methanone] |  |  |  |  | melting point: 160 to 162 °C |
| CC(C)CCS(=O)(=O)c1nc2cc(Cl)ccc2nc1C(F)(F)F [Example 169, 6-Chloro-3-(3-methylbutylsulfonyl)-2-trifluoromethyl-quinoxaline] |  |  |  |  | Emax at 1 µM (human GLP-1 receptor [3]): 19% |
| CC(C)CCS(=O)(=O)c1nc2ccc(Cl)cc2nc1C(F)(F)F [Example 170, 6-Chloro-2-(3-methylbutyl-1-sulfonyl)-3-trifluoromethyl-quinoxaline] |  |  |  |  | Emax at 1 µM (human GLP-1 receptor [3]): 33% |
